Assay results from patent US20120136011A1, “COMPOUNDS AND METHODS FOR SKIN REPAIR” (ALLERGAN, INC., priority 2010, published 2012).

Key:
[1] = tested on: Sprague-Dawley rats; test: Incisional skin wound model, 14 day pilot study, topical treatment; assay type: in vivo
Experimental: (§1) Incisional Skin Wound Model and Assessment. Sprague-Dawley rats at 180-200 gram were anesthetized with isoflourane. After shaving, a 2-cm long incision was made, reaching the deep fascia on the back skin of rats under sterile conditions. The wounds were immediately closed with 4-0 sutures. A 14 day pilot study was carried out. The animals were topically treated with vehicle or Compound 1 at 0.004% twice daily. The vehicle contained ethanol 30%, propylene glycol 12%, dipropylene glycol 5%, benzyl alcohol 5%, glycerol 3% and normal saline 45%. The wound was photographed daily; biopsy was performed at 2, 3, 7 and 14 days post-surgery for histopathology and molecular biology analysis.
(§2) The wound tissue was biopsied for histopathology on day 3, 14 and 70. To observe the skin wound, paraffin-embedded wound sections were made. Regular H&E staining was carried out in comparison with Masson trichrome and/or Picosirus red to visualize the collagen fibers. To monitor myofibroblasts in skin wound, the sections were immunohistochemically stained to identify alpha-smooth muscle actin. To assess wound appearance, all the scar photos were mixed together by the end of each study. The scar severity was scored on a scale of 0 to 10, with 0 being invisible, 1 the minimal and 10 the worst. Each scar was divided into 4 regions, separated by suture sites; each quarter was scored independently; the mean of the 4 part scores was recorded as the gross score of each wound.

[2] = tested on: Sprague-Dawley rats; test: Incisional skin wound study comparing Compound 1 and TGF-β3 (intradermal injection, then topical); assay type: in vivo; conditions: for number of neutrophils counted in three sections of H&E stained tissues: 3 days post-surgery, n=5, vehicle 60.6±30, not statistically significant; for macroscopic surface appearance of wound sites / abnormal regions (dense, red, fine parallel fibers) on Picrosirius red stained sections: 70 days post-surgery; for abnormal regions (dense, red, fine parallel fibers) on Picrosirius red stained sections: versus vehicle; for widths of the abnormal structured dermis regions, Masson trichrome / gap width in-between the normal fibrils, Picrosirius red / collagen fibril type at wound sites, Picrosirius red under polarized light: day 14; for widths of the abnormal structured dermis regions, Masson trichrome / size of residual scar regions, Masson trichrome: versus vehicle treated group, p<0.01-0.05; for gap width in-between the normal fibrils, Picrosirius red: versus vehicle-treated group, p<0.05; for collagen fibril type at wound sites, Picrosirius red under polarized light: yellow large bundles versus green type III collagen; for size of residual scar regions, Masson trichrome: day 70
Experimental: as §1
A similar skin wound study was also performed comparing the effects of Compound 1 and TGF-β3. In this study, intradermal injections of Compound 1 at 0.004%, TGF-β3 at 100 ng/200 μl or vehicle were given right before closing the wounds. Afterward, TGF-β3 was injected two more times, on day 1 and 2, and Compound 1 and vehicle were topically applied twice a day for the duration of the study. The vehicle was PBS with 0.1% BSA and 4 mM HCl in a total volume of 200 μl for injection. Skin wounds were imaged on day 3, 7, 14, and 70.
as §2

[3] = tested on: human fetal skin fibroblasts (CRL-7129); test: Collagen type I production in cultured fetal skin fibroblasts (Western blot); assay type: cell-based
[4] = tested on: human adult skin fibroblasts (CRL-7346); test: Collagen type I production in cultured adult skin fibroblasts (Western blot); assay type: cell-based
[5] = day 14, Masson Trichrome, versus vehicle
[6] = vehicle 100%, 48 hours treatment

Question: With `CC1(C)C(=O)[C@H](C/C=C\CCCC(=O)O)[C@@H](/C=C/[C@H](O)CCc2sc3ccccc3c2Cl)[C@@H]1O` [Compound 1] as the molecule, how does the “epidermal layer thickness and structure at wound site” value ([1]; 7 days post-skin incision, 0.004% topical twice daily) read?
Answer: Its value is “thickness close to the nearby normal epidermis”.

Question: What about the “epidermal thickness of vehicle-treated skin relative to Compound 1 treated epidermis” value ([1]; 7 days post-skin incision, vehicle had epidermal hyperplasia) of the same molecule?
Answer: Its value is 3 times.

Question: What about the “gross skin scar appearance” value ([1]; 14 days post-surgery, versus vehicle-treated animals) of the same molecule?
Answer: Its value is “smaller and softer skin scar”.

Question: What about the “overall size of epidermal defects, vehicle-treated versus Compound 1 treated wounds” value ([1]; day 3 post-surgery, 0.004% topical twice daily) of the same molecule?
Answer: Its value is “two times larger for vehicle-treated wounds”.

Question: And the “skin wound samples showing closed epidermis filled with keratinocytes” value ([1]; day 3 post-surgery, 0.004% topical twice daily, vehicle 33%)?
Answer: The value was 80%.

Question: And the “number of myofibroblasts (α-SMA-positive cells)” value ([1]; day 3 samples, vehicle control 38±6.15/3 sections)?
Answer: The value was 25.8±7.45 /3 sections.

Question: And the “scar width (abnormal fiber belt) in the middle and bottom parts of scars” value [1, 5]?
Answer: Its value is “significantly reduced”.

Question: What about the “scar width at the superficial region” value [1, 5] of the same molecule?
Answer: Its value is “only a tendency to decrease”.

Question: What about the “neutrophil (polymorphonuclear cell) infiltration at wound sites” value ([1]; days 2 and 3 post-surgery, versus vehicle) of the same molecule?
Answer: Its value is “significantly reduced”.

Question: What about the “number of neutrophils counted in three sections of H&E stained tissues” value [2] of the same molecule?
Answer: The value was 31.4±8.

Question: And the “macroscopic surface appearance of wound sites” value [2]?
Answer: The value was “wound sites were not even detectable”.

Question: And the “abnormal regions (dense, red, fine parallel fibers) on Picrosirius red stained sections” value [2]?
Answer: The value was “largely absent”.

Question: What about the “widths of the abnormal structured dermis regions, Masson trichrome” value [2] of the same molecule?
Answer: The value was “significantly smaller”.

Question: What about the “gap width in-between the normal fibrils, Picrosirius red” value [2] of the same molecule?
Answer: The value was “significantly narrower”.

Question: What about the “collagen fibril type at wound sites, Picrosirius red under polarized light” value [2] of the same molecule?
Answer: Its value is “large yellow-stained collagen bundles almost crossing over the entire wound sites”.

Question: What about the “size of residual scar regions, Masson trichrome” value [2] of the same molecule?
Answer: The value was “remarkably smaller”.

Question: What about the “collagen type-1 production (in words)” value [3] of the same molecule?
Answer: The value was “upregulated”.

Question: And the “collagen type-1 production relative to vehicle” value [3, 6]?
Answer: Its value is 200%.

Question: And the “collagen type-1 production (in words)” value [4]?
Answer: The value was “upregulated”.

Question: And the “collagen type-1 production relative to vehicle” value [4, 6]?
Answer: Its value is 128%.

Question: What does the source list for “TGF-β3: a leading treatment for wounds, reportedly reducing skin scar in both animals and human”?
Answer: number of neutrophils counted in three sections of H&E stained tissues [2]: 53.8±17; macroscopic surface appearance of wound sites [2]: still showed traces of wounds; abnormal regions (dense, red, fine parallel fibers) on Picrosirius red stained sections [2]: largely absent; widths of the abnormal structured dermis regions, Masson trichrome [2]: significantly smaller; gap width in-between the normal fibrils, Picrosirius red [2]: significantly narrower; collagen fibril type at wound sites, Picrosirius red under polarized light [2]: some green fibers at the bottom of the wounds; size of residual scar regions, Masson trichrome [2]: remarkably smaller
